# Reference: publication PMC10294390 (BMC Complementary Medicine and Therapies, 2023)
# Read-outs that look alike come from different tables or passages of the source.
# Experiments:
# [1] = test system: SW837 human rectum cancer cell line; test: MTT assay, single and schedule-dependent combined treatment; assay type: cell-based; conditions: Sora 0.25-10 µM alone; for IC50: Homo sapiens, SW837, SW837, read-out: IC-values (µM): IC50
# Protocol: (§1) The plates were washed, and PPCs [Cur, Kmf, or Que (60 or 120 µM), or Rsv (40 or 80 µM)] were added, followed by incubation at 37 °C for 48 h. For inverted sequential treatment, PPC [Cur, Kmf, or Que (60 or 120 µM), or Rsv (40 or 80 µM)] was added and incubated at 37 °C for 24 h. […] Cell growth was monitored as previously described.
# [2] = test system: SW1116 human colon cancer cell line; test: as above; assay type: cell-based; conditions: Sora 0.25-10 µM alone; for IC80: Homo sapiens, SW 1116, 72 h, read-out: IC-values (µM): IC80
# Protocol: as §1
# [3] = test system: SW837 cells; test: DNA fragmentation assay; assay type: cell-based, human; conditions: Sora 5 µM, PPC 200 and 400 µM, sequential combinations, 72 h, Fig. 8B, D
# Protocol: (§2) Induction of apoptosis was monitored using a DNA fragmentation assay following the manufacturer’s instructions (Apoptotic DNA Ladder Detection kit; Abcam). […] Cells were subsequently incubated at 37 °C for 72 h. The cells were then trypsinized, harvested, washed, pelleted, and lysed using Tris–EDTA (TE) lysis buffer (35 µl). Enzyme A solution (RNase; 5 µl) was added, followed by incubation at 37 °C for 10 min. Enzyme B solution (proteinase; 5 µl) was then added, followed by incubation at 50 °C for 30 min. Ammonium acetate solution (5 µl) and isopropanol (50 µl) were added to each sample and incubated at -20 °C for 10 min. Finally, the DNA was pelleted, washed with 0.5 ml 70% methanol, and dissolved in 30 µl DNA suspension buffer. The extracted DNA samples were loaded onto a 1.2% agarose gel, along with a loading marker (1 kb DNA ladder), and subjected to electrophoresis, using a running buffer containing 1.35 µg/ml ethidium bromide at 5 V/cm for 1 h. Ethidium bromide-stained DNA bands were visualized using transillumination with UV light.
# [4] = test system: SW1116 cells; test: DNA fragmentation assay; assay type: cell-based, human; conditions: Sora 5 µM, PPC 200 and 400 µM, simultaneous combinations, 72 h, Fig. 8A, C
# Protocol: as §2
# [5] = test system: SW837 human rectum cancer cell line; test: MTT assay, single and schedule-dependent combined treatment; assay type: cell-based; conditions: Sora 0.25-10 µM alone
# [6] = test system: DLD-1 colon tumor model; design: method as in PMID 14692718; conditions: cited from earlier work
# [7] = test system: SW837 cells; test: Annexin V-FITC/PI double staining, flow cytometry; assay type: cell-based, human
# Protocol: (§3) The levels of cell surface phosphatidylserine were determined to monitor the type of cell death and the kinetics of apoptosis. The CRC cell lines SW1116 and SW837 were seeded (2.5 × 10^5 cells/well) into 24-well plates and incubated in a non-CO2 incubator at 37 °C for 18 h. […] The cells were subsequently washed twice with HBSS and harvested using trypsin. Finally, the cells were double-stained using the Annexin V-FITC-Flous staining kit, according to the manufacturer’s instructions (Roche Diagnostic GmbH). Annexin V-Flous labelling solution containing Annexin V-FITC and PI (100 µl) was added to both the treated and control cell groups and incubated at 15–20 °C for 15 min. The cells (1 × 10^6 cells/ml) were then resuspended in binding buffer, and fluorescence was monitored using flow cytometry (FC500; Beckman Coulter, Inc.).
# [8] = test system: SW1116 cells; test: Annexin V-FITC/PI double staining, flow cytometry; assay type: cell-based, human
# Protocol: as §3
# [9] = clinical treatment with Sora, cited from earlier work
# [10] = test system: SW837 cells; test: Cell cycle analysis by flow cytometry (PI); assay type: cell-based, human; conditions: Sora 5 µM, 72 h
# Protocol: (§4) The cells were subsequently processed using a DNA-prep kit and DNA-Prep EPICS workstation. The cells were treated with a non-ionic detergent to permeabilize the cell membrane, followed by propidium iodide (PI) and RNase, and incubated at 15–20 °C for 15 min. The cells were resuspended in binding buffer at a concentration of 3–10 × 10^6 cells/ml for optimal staining. Fluorescence was measured using a flow cytometer (Beckman Coulter, Inc.), and the percentage of cells in the different phases of the cell cycle was calculated using the Phoenix statistical software package, Advanced DNA cell cycle software (Phoenix Flow System).
# [11] = test system: SW1116 cells; test: Cell cycle analysis by flow cytometry (PI); assay type: cell-based, human; conditions: Sora 5 µM, 72 h
# Protocol: as §4
# [12] = arm a of inverted sequential: Que 24 h followed by Sora 48 h
# [13] = arm a of inverted sequential: Rsv 24 h followed by Sora 48 h
# [14] = arm a of sequential: Sora 24 h followed by Que 48 h
# [15] = arm a of sequential: Sora 24 h followed by Rsv 48 h
# [16] = arm a of simultaneous Sora and Cur 72 h
# [17] = arm a of simultaneous Sora and Kmf 72 h
smiles,measurement,setting,value
"CNC(=O)c1cc(Oc2ccc(NC(=O)Nc3ccc(Cl)c(C(F)(F)F)c3)cc2)ccn1 [Sora, sorafenib]",IC50,[1]; [12],6.86 µM
same,IC50,[1]; [13],6.57 µM
same,IC50,[1]; [14],6.86 µM
same,IC50,[1]; [15],6.86 µM
same,IC-values (µM): IC60,"[1]; SW837, arm a of inverted sequential: Cur 24 h followed by Sora 48 h",IC60 = 8.00 µM
same,IC-values (µM): IC60,"[1]; SW837, arm a of inverted sequential: Kmf 24 h followed by Sora 48 h",IC60 = 7.43 µM
same,IC-values (µM): IC70,"[1]; SW837, arm a of sequential: Sora 24 h followed by Cur 48 h",IC70 = 0.86 µM
same,IC-values (µM): IC60,"[1]; SW837, arm a of sequential: Sora 24 h followed by Kmf 48 h",IC60 = 7.43 µM
same,IC80,[2]; [16],4.86 µM
same,IC80,[2]; [17],4.86 µM
same,IC80,[2]; arm a of simultaneous Sora and Que 72 h,4 µM
same,IC-values (µM): IC70,[2]; arm a of inverted sequential: Cur 24 h followed by Sora 48 h,IC70 = 6.00 µM
same,IC-values (µM): IC60,[2]; arm a of inverted sequential: Kmf 24 h followed by Sora 48 h,IC60 = 4.86 µM
same,IC-values (µM): IC60,[2]; [12],IC60 = 4.86 µM
same,IC-values (µM): IC60,[2]; [13],IC60 = 4.86 µM
same,IC-values (µM): IC60,[2]; arm a of sequential: Sora 24 h followed by Cur 48 h,IC60 = 7.70 µM
same,IC-values (µM): IC60,[2]; arm a of sequential: Sora 24 h followed by Kmf 48 h,IC60 = 0.57 µM
same,IC-values (µM): IC60,[2]; [14],IC60 = 0.57 µM
same,IC-values (µM): IC60,[2]; [15],IC60 = 0.57 µM
same,DNA fragmentation,[3],increased levels of DNA fragmentation
same,induction of apoptosis as indicated by DNA fragmentation,[4],marked induction of apoptosis
same,IC50,"[5]; Homo sapiens, SW837, 72 h, arm a of simultaneous Sora and Que 72 h, read-out: IC-values (µM): IC50",6.57 µM
same,IC-values (µM): IC60,[5]; [16],IC60 = 7.43 µM
same,IC-values (µM): IC60,[5]; [17],IC60 = 7.14 µM
same,IC-values (µM): IC60,[5]; arm a of simultaneous Sora and Rsv 72 h,IC60 = 7.71 µM
same,delay of tumor cell growth,[6],100%
same,viability at 5 µM,"[7]; Homo sapiens, SW837, 72 h, read-out: B3, percentage of viable cells",52.4%
same,"B1, percentage of necrotic cells","[7]; SW837, Sora 5 µM, 72 h",9.6%
same,"B2, percentage of late apoptotic cells","[7]; SW837, Sora 5 µM, 72 h",33.6%
same,"B4, percentage of early apoptotic cells","[7]; SW837, Sora 5 µM, 72 h",4.7%
same,viability at 5 µM,"[8]; Homo sapiens, SW 1116, 72 h, read-out: B3, percentage of viable cells",14.1%
same,"B1, percentage of necrotic cells","[8]; SW1116, Sora 5 µM, 72 h",13.6%
same,"B2, percentage of late apoptotic cells","[8]; SW1116, Sora 5 µM, 72 h",37.3%
same,"B4, percentage of early apoptotic cells","[8]; SW1116, Sora 5 µM, 72 h",35%
same,patients in whom side effects demand a dose reduction,[9],> 60%
same,patients with inhibition of treatment due to side effects,[9],6–25%
same,patients developing toxic side effects,"[9]; hand-foot syndrome, diarrhoea, fatigue, rash, weight loss",up to 80%
same,%G0/G1 (cells in G0/G1 phase),[10],52.0%
same,%G2/M (cells in G2/M phase),[10],12.9%
same,%S (cells in S phase),[10],34.9%
same,%SubG1 (cells in sub G1),[10],1.4%
same,%G0/G1 (cells in G0/G1 phase),[11],38.0%
same,%G2/M (cells in G2/M phase),[11],0.0%
same,%S (cells in S phase),[11],61.0%
same,%SubG1 (cells in sub G1),[11],8.4%
